Experimental data: patent publication US20250064773A1, “TARGETING ERO1 ALPHA WITH AURONE DERIVATIVES” (West Virginia University Board of Governors on behalf of …, priority 2021, published 2025)
Entries after “also recorded” stand apart in the source; their conditions may differ.

Legend:
[1] = tested on: PC-9 ERO1α knockout clones; test: Soft agar clonogenic assay, PC-9 ERO1α knockout clones; type: cell-based; details: 14 days, 3.75-15 μM
Description: (§1) We utilized an MTT assay to determine the potency of the compounds for inhibiting cell growth. […] We next asked whether T151742 induced inhibition of cell growth was dependent on ERO1α expression. As shown in FIG. 6C two ERO1α deleted clones in the PC-9 cell line were isolated. Using an MTT assay to determine overall cellar viability, a non-targeted control (scramble), and both ERO1α knockout clones was subjected to treatment with T151742 for 72 hours (See FIG. 6D). […] Though only slight differences were observed between T151742 and EN-460 we tested the effects of these compounds in a clonogenic assay which is a better test for inhibition of self-renewal.
(§2) FIG. 7A and FIG. 7B show 1000 cells/well were plated in a 12-well plate in triplicate with either 0.5% DMSO, T151742, or EN-460 and allowed to form colonies for 14 days. Colonies were subsequently stained with 0.01% Crystal Violet, imaged, and quantified using ImageJ. […] Colonies were stained with 0.01% Crystal Violet, imaged, and quantified using ImageJ.
(§3) Cell Lines: PC-9 cell line used was obtained from Sigma Aldrich and grown in RPMI 1640 medium with 10% fetal bovine serum and 1% penicillin/streptomycin. […] Plate was then read on the BioTek Cytation 5 at 530/590 nm. […] Plate was then read at 570 nm. […] Images were then quantified using ImageJ. […]

PC-9 cells = test: Soft agar clonogenic assay, PC-9; type: cell-based; details: 14 days, 3.75-15 μM
Description: as §1, §2, §3

CN(C)c1ccc(/C=C2\Oc3cc(O)ccc3C2=O)cc1 [Compound T151742]
sensitivity of ERO1α knockout clones in clonogenic assay [1]: completely resistant | activity in clonogenicity assay (colony number) (PC-9 cells): retained activity; also recorded: significantly more potent at reducing colony number
